Series [1] has as its system α-mannosidase gene expression. The series is described as follows: Geraniol/ACC treatment of seedlings, real-time RT-PCR of mannosidase expression. As to conditions: for regulation of α-mannosidase expression: rin and/or wild type, relative to control. The series is classed as in vivo, tomato (Pusa Ruby). From the text:
Geraniol is an acyclic dietary monoterpene, having in vitro and in vivo antitumor activity against various cancer cell lines and is therefore considered as a new class of agents for cancer chemoprevention. It was also reported that geraniol interferes with the membrane functions of Candida albicans and Saccharomyces cervisiae. […] This instigated us to further analyze the role of geraniol on α-mannosidase induction in pleiotropic rin mutant. The rin seedlings were fed with 10% geraniol and samples collected.
RNA was isolated according to the Lithium chloride method and quantified using nanodrop (ND-100). 5 μg of total RNA was reverse transcribed to cDNA using superscript II (Invitrogen). Quantitative RT-PCR was performed using light Cycler Version 4.05 (Roche diagnostics) with cyber green. The cycle consisted of initial 10 min Taq activation at 95° C. followed by 45 cycles, consisting of 10 s at 94° C., 10 s at 55° C. and 10 s at 72° C. Then the melt curve analysis was performed to verify the fidelity of the amplification. Using the 2^−ΔΔ CT method, the data is presented as the fold change in gene expression normalized to an endogenous reference gene and relative to the control. The gene encoding actin was used as the endogenous control.
Pusa Ruby seeds were sterilized and germinated on MS medium. After 15 days the seedlings were transferred to a liquid media containing 10 mM geraniol in 20% DMSO or 1 mM ACC (1-aminocyclopropane-1-carboxylic acid) in water. The RNA was isolated from the harvested sample and reverse transcribed to cDNA for real-time RT-PCR analysis. Expression was calculated relative to the control seedlings (0 hr).

Series [2] concerns the target T1, tomato α-mannosidase (Solanum lycopersicum, UniProt D3TI68). Kind of series: N-linked oligosaccharide cleavage, HPAE chromatography. The format is biochemical. The note with it: incubated at 37° C. overnight, Carbopac PA-1 column. As to the method: (§1) The temperature and pH optimum for the enzyme was 45° C. and pH 6.0, respectively. […] To identify the nature of the tomato α-mannosidase it was resolved on SDS-PAGE and subjected to PAS staining, the protein stained positive for glycoproteins. […] In order to correlate specific activity at particular ripening stage with the protein accumulation, immunoblot analysis of all the stages was done using polyclonal antibody raised against 70 kD subunit of the protein homologus to α-mannosidase. […] Our finding was further reinforced by a report in Arabidopsis which classified α-mannosidase homologue (Q8LPJ3) into cell wall protein with a signal peptide for secretion. To decipher the role of α-mannosidase on N-glycans and their processing, we targeted three N-linked oligosaccharides (Oligomannose-3, Oligomannose-5 and Oligomannose-9) commonly found in the fruit pericarp. To verify its action on N-glycans, α-mannosidase was incubated with N-linked oligosaccharides at 37° C. overnight and the reaction mixture was resolved on Carbopac PA-1 column.
One μg of protein was incubated with 100 ng each of N-linked oligosaccharides (Dextra, U.K) at 37° C. overnight and the sample was filtered through PVDF membrane to remove the enzyme. 10 μl of the filtered sample was used for the analysis. An HPAE-PAD system (Dionex DX 500 BioLC) equipped with a gradient pump (GP 40), an anion exchange column (Carbopac PA-1, 4×250 mm) an eluant degas module (EDM-2) for pressurizing the eluants with argon was used for the analysis of monosaccharides. The separated monosaccharides were detected by an ED 40 detector equipped with a gold electrode and an Ag/AgCl reference electrode. The resulting chromatographic data was integrated and plotted using a PC based oracle 2 data acquisition system (Indtech Analytical, Bombay), The standard (mannose) was injected at a concentration of 100 nmoles before and after the analysis of each sample to confirm the results. This confirmed the N-glycan processing ability of mannosidase

For series [3] the following is noted: cited from earlier work.
In series [4] the target is T1, tomato α-mannosidase. The series is described as follows: Mannosidase enzyme assay and biochemical characterization. As to the method:
as §1
Mannosidase was assayed in one ml of the reaction mixture consisting of 940 μl of MQ, 20 μl of 20 mM substrate (pNP-α-D-mannopyrinoside) and 20 μl aliquot of the enzyme at 37° C. for 15 min along with a blank devoid of the enzyme. The reaction was stopped by adding of 40 μl of 0.5M Na2CO3. The colour developed as result of pNP release was recorded at 405 nm and quantified using a standard curve.

Substrate in series [5]: O=[N+]([O-])c1ccc(O[C@H]2O[C@H](CO)[C@@H](O)[C@H](O)[C@@H]2O)cc1
The description is as above. Further details: species or system tomato (Solanum lycopersicum). As to conditions: other: purified tomato enzyme; pH 6.0. As to the method: as §1
Mannosidase was assayed in one ml of the reaction mixture consisting of 940 μl of MQ, 20 μl of 20 mM substrate (pNP-α-D-mannopyrinoside) and 20 μl aliquot of the enzyme at 37° C. for 15 min along with a blank devoid of the enzyme. […] The colour developed as result of pNP release was recorded at 405 nm and quantified using a standard curve.

The text below walks through data of patent publication US8962918B2, “Polynucleotide sequence of fruit softening associated A-mannosidase and its uses for enhancing fruit shelf life” (National Institute of Plant Genome Research, priority 2008, dated 2015).

“Also recorded” adds a separate entry of the source.

Turning to `NC1(C(=O)O)CC1` [ACC, 1-aminocyclopropane-1-carboxylic acid], in series [1] (seedlings), the “regulation of α-mannosidase expression” value is “up regulate”.

As to `CC(=O)N[C@H]1[C@H](O[C@H]2[C@H](O)[C@@H](NC(C)=O)C(O)O[C@@H]2CO)O[C@H](CO)[C@@H](O[C@@H]2O[C@H](CO[C@H]3O[C@H](CO)[C@@H](O)[C@H](O)[C@@H]3O)[C@@H](O)[C@H](O[C@H]3O[C@H](CO)[C@@H](O)[C@H](O)[C@@H]3O)[C@@H]2O)[C@@H]1O` (stereo partly drawn) [Oligomannose-3], the “cleavage by α-mannosidase” value on tomato α-mannosidase [2] is “able to cleave terminal mannose residue/s”.

As for `CC(=O)N[C@H]1[C@H](O[C@H]2[C@H](O)[C@@H](NC(C)=O)C(O)O[C@@H]2CO)O[C@H](CO)[C@@H](O[C@@H]2O[C@H](CO[C@H]3O[C@H](CO[C@H]4O[C@H](CO)[C@@H](O)[C@H](O)[C@@H]4O)[C@@H](O)[C@H](O[C@H]4O[C@H](CO)[C@@H](O)[C@H](O)[C@@H]4O)[C@@H]3O)[C@@H](O)[C@H](O[C@H]3O[C@H](CO)[C@@H](O)[C@H](O)[C@@H]3O)[C@@H]2O)[C@@H]1O` (stereo partly drawn) [Oligomannose-5], the “cleavage by α-mannosidase” value at tomato α-mannosidase [2] was “able to cleave terminal mannose residue/s”.

For `CC(=O)N[C@H]1[C@H](O[C@H]2[C@H](O)[C@@H](NC(C)=O)C(O)O[C@@H]2CO)O[C@H](CO)[C@@H](O[C@@H]2O[C@H](CO[C@H]3O[C@H](CO[C@H]4O[C@H](CO)[C@@H](O)[C@H](O)[C@@H]4O[C@H]4O[C@H](CO)[C@@H](O)[C@H](O)[C@@H]4O)[C@@H](O)[C@H](O[C@H]4O[C@H](CO)[C@@H](O)[C@H](O)[C@@H]4O[C@H]4O[C@H](CO)[C@@H](O)[C@H](O)[C@@H]4O)[C@@H]3O)[C@@H](O)[C@H](O[C@H]3O[C@H](CO)[C@@H](O)[C@H](O)[C@@H]3O[C@H]3O[C@H](CO)[C@@H](O)[C@H](O)[C@@H]3O[C@H]3O[C@H](CO)[C@@H](O)[C@H](O)[C@@H]3O)[C@@H]2O)[C@@H]1O` (stereo partly drawn) [Oligomannose-9], the “cleavage by α-mannosidase” value on tomato α-mannosidase [2] is “able to cleave terminal mannose residue/s”.

In the case of `CC(C)=CCC/C(C)=C/CO` [geraniol], the “α-mannosidase transcript up regulated” value in series [1] (rin mutant seedlings fed with 10% geraniol, after 30 min) is given as “up to 6 fold”. In addition, in series [1] (seedlings, geraniol in 20% DMSO, after 30 min, compared to control (DMSO only)), the “up-regulation in mannosidase gene expression” value is listed as “up to 3 fold”. Moreover, the “regulation of α-mannosidase expression” value in series [1] (seedlings) is given as “upregulated; also recorded: induced”. Also, in series [3], the solubility in water entry is given as “not soluble in water”.

B1: tomato α-mannosidase: enzyme purified from pericarp of breaker stage tomato; SEQ ID NO: 2 (protein, listed as Solanum lycopersicum)
chain: MKNMGKFEIWFLILMVCGLWVVEAKYMVYNTSQGIVSGKLNVHLVPHTHDDVGWLKTVDQYYVGSNNSIQVACVQNVLDSLIPALLADKNRKFIYVEQAFFQRWWRNQSPGMQSTVKQLVNSGQLESINGGWCMHDEAATHYIDMIDQTTLGHKYIKQQFNVTPRIGWQIDPFGTFCCSGIPSGSKGWIRLSFLWDALTTKDREKRKIEKSLEVIWRGSKSLSSSTQIFSGAFPQNYEPPSKFYFEVNDDNSLPVQDDVNLFDYNVQERVNDFVAAALSQANITRTNHIMWTMGTDFKYQYAHTWFRNMDKLIHYVNQDGRVNALYSSPSIYTDAKYALDESWPLKTDDYFPYADRINAYWTGYFTSRPALKLYVRMMSGYYLAARQLEFFKGRIETGPTTEILADALAIAQHHDAVSGTPKQHVADDYAKRLFIGYKQAEDLVSNSLACMVESASASGCKNPQINFKQCPLLNISYCPPTEADLAPGKKLVVVVYNALGWKRTDVVRIPVVNKNVIVEDSTGKEIESQLLPIVKESIVIRNYYAAAYFGESPTSSPKYWLVFTATVPPLGFSSYVITSGKQAVAASIPQTFYKTDGSQSDAVEVGPGNLKLLYSANGAKFTQYFNKRNQVRSSLEQSFSYYSADDGSKDDYKDIQASGAYVFRPNGSFPIHPEGKVPATILRGPLLDEVHQNINSWIYQITRVYKEKEHVEVEFTVGPIPIDNGIGKELVTQIQTDIKSNKTFYTDSNGRDFLKRVRDYRADWDLQVNQPAAGNYYPINLGLFLKDNNNEFSVLVDRSVGGSSLVDGQLELMLHRRLLNDDGRGVAEALNETVCALGKCMGLTVQGKYYIRIDSLGEGAKWRRSFGQEIYSPLLLAFTEQDGDKFTKFPVPTFTGMDPSYSLPDNVAIITLQELEDHTVLLRLAHLYEVDEDKDLSTKASVELKRLFPKRKINKIREMSLSANQERVEMEKKRLKWKAEAPSDLRDVARGGPVDPTKLMVELAPMEIRTFVIDLSQSVPEGWKSHMSL
modifications: Protein sequence of alpha mannosidase
In the series with tomato α-mannosidase [4], B1 returned a pH optimum of 6.0 and a temperature optimum of 45 °C. The “thermal stability without considerable reduction in the activity” value in the series with tomato α-mannosidase [4] (for 1 hr) was at most 60 °C.

B2: tomato α-mannosidase (Solanum lycopersicum) (protein)
chain: KYMVYNTSQGIVSGKLNVHLVPHTHDDVGWLKTVDQYYVGSNNSIQVACVQNVLDSLIPALLADKNRKFIYVEQAFFQRWWRNQSPGMQSTVKQLVNSGQLESINGGWCMHDEAATHYIDMIDQTTLGHKYIKQQFNVTPRIGWQIDPFGTFCCSGIPSGSKGWIRLSFLWDALTTKDREKRKIEKSLEVIWRGSKSLSSSTQIFSGAFPQNYEPPSKFYFEVNDDNSLPVQDDVNLFDYNVQERVNDFVAAALSQANITRTNHIMWTMGTDFKYQYAHTWFRNMDKLIHYVNQDGRVNALYSSPSIYTDAKYALDESWPLKTDDYFPYADRINAYWTGYFTSRPALKLYVRMMSGYYLAARQLEFFKGRIETGPTTEILADALAIAQHHDAVSGTPKQHVADDYAKRLFIGYKQAEDLVSNSLACMVESASASGCKNPQINFKQCPLLNISYCPPTEADLAPGKKLVVVVYNALGWKRTDVVRIPVVNKNVIVEDSTGKEIESQLLPIVKESIVIRNYYAAAYFGESPTSSPKYWLVFTATVPPLGFSSYVITSGKQAVAASIPQTFYKTDGSQSDAVEVGPGNLKLLYSANGAKFTQYFNKRNQVRSSLEQSFSYYSADDGSKDDYKDIQASGAYVFRPNGSFPIHPEGKVPATILRGPLLDEVHQNINSWIYQITRVYKEKEHVEVEFTVGPIPIDNGIGKELVTQIQTDIKSNKTFYTDSNGRDFLKRVRDYRADWDLQVNQPAAGNYYPINLGLFLKDNNNEFSVLVDRSVGGSSLVDGQLELMLHRRLLNDDGRGVAEALNETVCALGKCMGLTVQGKYYIRIDSLGEGAKWRRSFGQEIYSPLLLAFTEQDGDKFTKFPVPTFTGMDPSYSLPDNVAIITLQELEDHTVLLRLAHLYEVDEDKDLSTKASVELKRLFPKRKINKIREMSLSANQERVEMEKKRLKWKAEAPSDLRDVARGGPVDPTKLMVELAPMEIRTFVIDLSQSVPEGWKSHMSL
As for B2, the Km (as a rule, the substrate concentration at which the rate is half of its maximum) in series [5] worked out at 4.6 mM.
